# Measurements as given in patent US12551482B2, “Aurora kinase inhibitors” (The Regents of the University of California, priority 2013, dated 2026).
# Like-named read-outs stand apart in the source and are kept apart here.
# Experiments:
# HSC-2 = assay: Cancer cell line profiling, Genomics of Drug Sensitivity Project; conditions: Homo sapiens, HSC-2, read-out: CD532 EC50 (uM)
# 23132/87 = assay: as above; conditions: read-out: CD532 EC50 (uM)
# MYCN = assay: Dose response immunoblot for MYCN in MYCN-amplified neuroblastoma cell lines (SK-N-BE(2), SMS-KCN, Kelly); type: cell-based; conditions: multiple cell lines, 24 hrs (FIGS. 1D and 7)
# Procedure: Neuroblastoma tumor cell lines were obtained from the University of California San Francisco Cell Culture Facility (Kelly, SK-N-BE2, and SH-EP). SMS-KCN, SHEP MYCN^wt and MYCN^T58A/S62A cells were obtained. All cells were grown in RPMI with 10% FBS. Neuroblastoma cells were harvested and lysed with Cell Signaling Lysis buffer+1% SDS, sonicated and supernatants boiled in LDS sample buffer (Invitrogen). Western blots were performed as described previously (Chanthery et al., 2012), with primary antibodies to MYCN (ab24193, Abcam), Histone H3, P-Histone H3 (S10), Aurora A (Cell signaling), and GAPDH (Millipore). Western blot quantitation performed with ImageJ software.
# HGC-27 = assay: Cancer cell line profiling, Genomics of Drug Sensitivity Project; conditions: Homo sapiens, HGC-27, read-out: CD532 EC50 (uM)
# 8505C = assay: as above; conditions: Homo sapiens, read-out: CD532 EC50 (uM)
# KON = assay: as above; conditions: read-out: CD532 EC50 (uM)
# Ca9-22 = assay: as above; conditions: Homo sapiens, Ca9-22, read-out: CD532 EC50 (uM)
# Aurora A protein = target: T1, Aurora A protein (Homo sapiens, UniProt O14965); assay: Dose response immunoblot for Aurora A protein in MYCN-amplified neuroblastoma cell lines; type: cell-based; conditions: across cell lines (FIGS. 1D and 7)
# T1 construct: endogenous in cells; host or cells: SK-N-BE(2), SMS-KCN, Kelly neuroblastoma cells
# T1 sequence (O14965 whole entry): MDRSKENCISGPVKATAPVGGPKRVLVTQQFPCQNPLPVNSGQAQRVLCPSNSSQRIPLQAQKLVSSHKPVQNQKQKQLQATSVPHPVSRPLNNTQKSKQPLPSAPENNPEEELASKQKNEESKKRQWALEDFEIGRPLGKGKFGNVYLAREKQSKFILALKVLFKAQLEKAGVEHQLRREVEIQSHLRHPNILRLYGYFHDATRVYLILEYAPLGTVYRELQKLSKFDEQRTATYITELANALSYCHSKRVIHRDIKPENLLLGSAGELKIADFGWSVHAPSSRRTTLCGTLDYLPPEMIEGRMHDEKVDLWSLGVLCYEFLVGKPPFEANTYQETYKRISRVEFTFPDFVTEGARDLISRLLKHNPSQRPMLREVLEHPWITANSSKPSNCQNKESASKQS
# Procedure: Neuroblastoma tumor cell lines were obtained from the University of California San Francisco Cell Culture Facility (Kelly, SK-N-BE2, and SH-EP). SMS-KCN, SHEP MYCN^wt and MYCN^T58A/S62A cells were obtained. All cells were grown in RPMI with 10% FBS. Neuroblastoma cells were harvested and lysed with Cell Signaling Lysis buffer+1% SDS, sonicated and supernatants boiled in LDS sample buffer (Invitrogen). […] Western blot quantitation performed with ImageJ software.
# WM-115 = assay: Cancer cell line profiling, Genomics of Drug Sensitivity Project; conditions: Homo sapiens, WM-115, read-out: CD532 EC50 (uM)
# HSC-4 = assay: as above; conditions: Homo sapiens, HSC-4, read-out: CD532 EC50 (uM)
# NUGC-3 = assay: as above
# RPMI-7951 = assay: as above
# MYCN-MAX = assay: Immunoprecipitation of MYCN and immunoblot for MAX; type: cell-based; conditions: SK-N-BE(2) cells, 2 hrs
# Procedure: Pulldowns were performed with anti-N-Myc antibody (Santa Cruz, SC-53993) and Protein G sepharose beads (Sigma-Aldrich, P3296). Immunoblots were performed as described above.
# [1] = target: T2, c-MYC/Aurora A interaction (Homo sapiens, UniProt O14965); assay: Immunoprecipitation of c-MYC and immunoblotting for Aurora A; type: cell-based; conditions: RKO colon cancer cell line
# T2 construct: endogenous in cells; host or cells: RKO colon cancer cell line
# T2 sequence (O14965 whole entry): as above
# SK-MEL-5 = assay: Cancer cell line profiling, Genomics of Drug Sensitivity Project
# huH-1 = assay: as above; conditions: Homo sapiens, HuH-1, read-out: CD532 EC50 (uM)
# Hep 3B2.1-7 = assay: as above; conditions: read-out: CD532 EC50 (uM)
# Detroit 562 = assay: as above; conditions: Homo sapiens, Detroit 562, read-out: CD532 EC50 (uM)
# [2] = tested on: MYCN amplified neuroblastoma cells; assay: Cell cycle by flow cytometry; type: cell-based; conditions: 4 or 6 hrs of treatment
# Procedure: Neuroblastoma cells were treated for the indicated time, trypsinized, washed, stained with Dylight 800 at 0.3 μg/mL (Pierce, 46421), fixed with 1.5% PFA, and permeabilized with 100% methanol. Cells were then stained with antibodies against p-MPM2 (Millipore, 16-155), p-pan-Aurora (Cell Signaling, 2914), MYCN (Thermo, PA5-17403), rabbit IgG (Invitrogen, A10542), or mouse IgG (BioLegend, 405307). Cells were stained with DAPI at 0.3 μg/mL (Invitrogen, D21490) and analyzed on the BD LSR II flow cytometer. For cell cycle analysis, cells were stimulated with EdU for 2 hours prior to harvest, then probed using the Click-iT EdU Flow Cytometry Assay Kit (Invitrogen, C10424). Cells were stained with propidium iodide (BD, 556547) and analyzed on the BD FACSCalibur flow cytometer. Data was gated using Cytobank. For viability studies, neuroblastoma cells were plated in 96-well plates at a density of 1,000 cells/well for SHEP or 4,000 cells/well for Kelly or SK—N-BE2 cells, then incubated with indicated concentrations of drug for 72 hours at 37° C. Plates were frozen at −80° C. to induce cell lysis. CyQUANT reagent mixture (Invitrogen, C7026) was added to thawed plates, then fluorescence was measured. Alternatively, resazurin (Sigma-Aldrich, R7017) was added directly to wells following drug treatment then incubated for 4 hours at 37° C. prior to measuring fluorescence. Data was analyzed using GraphPad Prism software.
# OVMIU = assay: Cancer cell line profiling, Genomics of Drug Sensitivity Project; conditions: read-out: CD532 EC50 (uM)
# A2058 = assay: as above
smiles,measurement,setting,value
"O=C(Nc1ccc(Nc2nccc(Nc3cc(C4CCCC4)[nH]n3)n2)cc1)Nc1cccc(C(F)(F)F)c1 [CD532, 1-(4-((4-((5-cyclopentyl-1H-pyrazol-3-yl)amino)pyrimidin-2-yl)amino)phenyl)-3-(3-(trifluoromethyl)phenyl)urea]",EC50,HSC-2,2.15 µM
same,EC50,23132/87,0.471 µM
same,"MYCN protein, dose response",MYCN,dose dependent loss of MYCN protein
same,EC50,HGC-27,0.83 µM
same,EC50,8505C,0.662 µM
same,EC50,KON,4.15 µM
same,EC50,Ca9-22,0.705 µM
same,Aurora A protein level,Aurora A protein,downregulated Aurora A protein across cell lines (at higher concentrations)
same,EC50,WM-115,0.412 µM
same,EC50,HSC-4,0.885 µM
same,EC50,"NUGC-3; Homo sapiens, NUGC-3, read-out: CD532 EC50 (uM), NUGC-3 cell line, Stomach",0.968 µM
same,EC50,"NUGC-3; read-out: CD532 EC50, NUGC-3 cell line, Stomach",1.15 µM
same,EC50,"RPMI-7951; Homo sapiens, RPMI-7951, read-out: CD532 EC50 (uM), RPMI-7951 cell line, Skin",1.06 µM
same,EC50,"RPMI-7951; read-out: CD532 EC50, RPMI-7951 cell line, Skin",0.952 µM
same,MYCN-MAX binding,MYCN-MAX,did not affect MYCN-MAX binding
same,c-MYC association with Aurora A,[1],reduces this interaction
same,EC50,"SK-MEL-5; Homo sapiens, SK-MEL-5, read-out: CD532 EC50 (uM), SK-MEL-5 cell line, Skin",0.525 µM
same,EC50,"SK-MEL-5; read-out: CD532 EC50, SK-MEL-5 cell line, Skin",0.366 µM
same,EC50,huH-1,1.38 µM
same,EC50,Hep 3B2.1-7,0.877 µM
same,EC50,Detroit 562,1.25 µM
same,cell cycle effect,[2],potent loss of S-phase entry
same,EC50,OVMIU,0.869 µM
same,EC50,"A2058; Homo sapiens, A2058, read-out: CD532 EC50 (uM), A2058 cell line, Skin",0.975 µM
same,EC50,"A2058; read-out: CD532 EC50, A2058 cell line, Skin",1.09 µM
